Assay results as given in patent publication US20220226342A1, “COMPOSITIONS AND METHODS OF TREATING LIVER CANCERS” (The Johns Hopkins University, priority 2019, published 2022).

Key:
[1] = test system: 6 HCC PDO lines; assay: FACS analysis of BrdU incorporation (proliferation); format: cell-based, human
[2] = test system: PDX26-3
Protocol: FIG. 7A-7I. […] Significance was determined with log rank test. […] Error bars represent Mean±standard deviation. […] (7J).
Patient derived xenograft (PDX) models of human cancer are well documented to recapitulate primary tumor biology, as well as response to treatment^28, 29. Two PDX models from HCC patients were established in the inventors' lab with the purpose of creating a platform for further validation of drug leads. The first model, PDX26-3, was established by subcutaneous injection of HCC PDO cells into NOD SCID-IL2R-γ chain-deficient mice (NSG, Jackson Lab). More specifically, PDX26-3 is established from PDO26-3 cells at passage 3. After the initial PDX establishment, the model is perpetuated by implantation of pieces of tumors from current generation PDX mice into the next (as described in Materials and Methods).

[3] = test system: 26-3 PDX; assay: Ki67 immunofluorescent staining of PDX tumor frozen sections; format: in vivo, NSG mice; settings: omacetaxine treated HCC PDX tumors vs matched controls
Text: (§1) FIG. 8A-8G. Omacetaxine inhibits tumor cell proliferation and increases apoptosis and suppressed HCC oncoprotein expression in vivo. (8A-8D) Immunofluorescent staining of Ki67 and cleaved caspase 3 expression in 26-3 PDX model. 8A-8B show the IF staining pictures, 8C-8D show the relative Ki67 or cleaved caspase 3 positive cell number in omacetaxine treated mice compared with control treatment groups. (8E-8G) Omacetaxine suppressed HCC oncoprotein: c-Myc, Beta-catenin and MET protein expression in 50 HCC PDX treated with Omacetaxine vs control.
To verify the mechanism of omacetaxine target HCC mechanism in vivo, omacetaxine treated HCC PDX tumors, as well as matched controls, were harvested, and frozen section slides were made. […] The difference in apoptosis as well as proliferation was statistically significant (FIGS. 8C and 8D).

[4] = test system: 6 HCC PDO lines; assay: Annexin V / 7AAD flow cytometry apoptosis assay; format: cell-based, human; settings: 700 μM, 350 μM, 96 h
Protocol: FIG. 5A-5E. Apoptosis analysis of HCC PDOs treated with omacetaxine in vitro. Organoids were plate on 24 well plate, omacetaxine at 700 μM, 350 μM were added to cell culture medium for 96 h. Then cells were collected and subjected to the analysis below. (5A and 5C). […] (5B and 5D). Flow cytometry analysis of cleaved caspase 3 expression of omacetaxine treated HCC PDOs. […] The effects on proliferation were assessed to elucidate the omacetaxine mechanisms of action. […] To further understand the effects of omacetaxine on cancer cell proliferation and cell cycle, the inventors performed FACS analysis of Ki67 protein. Ki-67 is a nuclear protein expressed in proliferating cells (in all phases of the cell cycle except G0)^22,23. Furthermore, the higher expression of Ki67 has been linked to poorer disease free survival and overall survival in HCC^24. […] As caspase 3 is a key molecule in apoptosis, the inventors measured its activated (cleaved) fragment.

[5] = test system: global protein synthesis in 6 HCC PDOs; assay: OP-Puro incorporation assay (EZClick Global Protein Synthesis Assay); format: cell-based, human
Text: (§2) FIG. 3A-3H. Mechanism of Omacetaxine action on different HCC patient derived organoids lines. (3A). […] (3B). […] (3C) The mean fluorescence intensity ratio reflected protein synthesis rate of the plots data in (a). (3D-3H).

[6] = test system: MET; assay: oncoprotein staining of HCC PDX tumor frozen sections; format: in vivo, human; settings: HCC PDX tumor (50 HCC PDX) vs control
Text: as §1
(§3) Tumor masses from HCC PDX mice treated with omacetaxine and negative control, respectively, were utilized to prepare frozen sections, which were then stained for the c-Myc, MET and beta-catenin.

[7] = test system: beta-catenin; assay: as above; format: in vivo, human; settings: HCC PDX tumor (50 HCC PDX) vs control
Text: as §1, §3

[8] = test system: c-Myc; assay: as above; format: in vivo, human; settings: HCC PDX tumor (50 HCC PDX) vs control
Text: as §1, §3

[9] = test system: 6 HCC PDO lines; assay: FACS analysis of Ki67 protein; format: cell-based, human; settings: all 6 HCC PDO lines tested
Protocol: FIG. 4A-4D. Proliferation assay of HCC PDOs treated with omacetaxine in vitro. […] (4B and 4D).Ki67 expression from 6 HCC PDO lines treated with omacetaxine were analyzed with flow cytometry. […] The effects on proliferation were assessed to elucidate the omacetaxine mechanisms of action. […] To further understand the effects of omacetaxine on cancer cell proliferation and cell cycle, the inventors performed FACS analysis of Ki67 protein. Ki-67 is a nuclear protein expressed in proliferating cells (in all phases of the cell cycle except G0)^22,23. Furthermore, the higher expression of Ki67 has been linked to poorer disease free survival and overall survival in HCC^24. […] As caspase 3 is a key molecule in apoptosis, the inventors measured its activated (cleaved) fragment.

[10] = test system: 6 HCC PDO lines; assay: cell cycle analysis; format: cell-based, human
Protocol: FIG. 6A-6B. Cell cycle analysis of omacetaxine treated HCC PDOs. […] (6A) The histogram of cell cycle distributions.
The effects on proliferation were assessed to elucidate the omacetaxine mechanisms of action. […] To further understand the effects of omacetaxine on cancer cell proliferation and cell cycle, the inventors performed FACS analysis of Ki67 protein. Ki-67 is a nuclear protein expressed in proliferating cells (in all phases of the cell cycle except G0)^22,23. Furthermore, the higher expression of Ki67 has been linked to poorer disease free survival and overall survival in HCC^24. […] As caspase 3 is a key molecule in apoptosis, the inventors measured its activated (cleaved) fragment.

[11] = test system: MET; assay: oncoprotein level by FACS at 96 h in 6 HCC PDO lines; format: cell-based, human
Text: as §2
(§4) Select oncoproteins, such as MYC, beta-catenin, Cyclin D1, XIAP and MET are short half-life proteins^20, 26, 27.

[12] = test system: beta-catenin; assay: as above; format: cell-based, human
Text: as §2, §4

[13] = test system: XIAP; assay: as above; format: cell-based, human
Text: as §2, §4

[14] = test system: Cyclin D1; assay: as above; format: cell-based, human
Text: as §2, §4

[15] = test system: MYC; assay: as above; format: cell-based, human
Text: as §2, §4

COC(=O)C[C@](O)(CCCC(C)(C)O)C(=O)O[C@@H]1C(OC)=C[C@]23CCCN2CCc2cc4c(cc2[C@H]13)OCO4 [omacetaxine, omacetaxine mepusuccinate]
BrdU incorporation in newly synthetized DNA (proliferation) [1]: inhibited incorporation
size of the tumors at the end of the treatment ([2]; PDX26-3, day 30, vs control): statistically significant difference
weight of the tumors at the end of the treatment ([2]; PDX26-3, day 30, vs control): statistically significant difference
increase in survival ([2]; PDX26-3 mice, statistically significant): approximately 100%
tumor growth ([2]; PDX26-3 mice, treatment applied directly into the tumor): halting of tumor growth
body mass of mice, treatment vs. control group ([2]; mouse, in vivo): no difference in the body mass
proliferation as measured by Ki67 protein expression [3]: less
early / late apoptosis (Annexin V, 7AAD) [4]: either early apoptosis, or late apoptosis, or both were increased
global protein synthesis ([5]; 150 nM and 700 nM, 6 HCC PDOs, 36 h): drastically inhibited global protein synthesis
protein synthesis inhibition at 700 nM compared with 150 nM ([5]; 700 nM vs 150 nM): did not induce any further inhibition of protein synthesis
MET expression in vivo [6]: downregulated
beta-catenin expression in vivo [7]: downregulated
c-Myc expression in vivo [8]: downregulated
expression of Ki67 [9]: reduces the expression of Ki67
cell cycle arrest ([10]; 6 HCC PDOs, dose-dependent): induces G0/G1 arrest
G0/G1 fraction with rising omacetaxine dose ([10]; all 6 HCC PDOs): around 90%
MET level [11]: inhibited
beta-catenin level [12]: inhibited
XIAP level [13]: inhibited
Cyclin D1 level [14]: inhibited
MYC level [15]: inhibited
